Some test systems named below: HT29 colon; UACC-257 melanoma; SW-620 colon; TK-10 renal; SNB-75 CNS; A498 renal; SF-268 CNS; OVCAR-3 ovarian; MALME-3M melanoma; CCRF-CEM leukemia.
Common to all, as to assay: DTP human tumour cell line panel, 48 h

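Following 48 hours of exposure in 96-well plates, responses at five concentrations were used to interpolate endpoints linearly. Abbreviation: GI50, concentration required for 50% inhibition of growth. TGI denotes the concentration required for complete inhibition of growth.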 Bounds are passed on as bounds.

Regarding `O=c1[nH]c2ccccc2n1-c1n[nH]c2ccccc12`, the GI50 (usually the concentration at which growth is held to half of that of the control) in the assay with HT29 colon was 37.6 µM; with UACC-257 melanoma, 42.1 µM; in the assay with SW-620 colon, 39.4 µM; with TK-10 renal it was 40.7 µM; with SNB-75 CNS, 41.9 µM; with A498 renal it was 51.3 µM. The GI50 with SF-268 CNS is 25.1 µM; in the assay with OVCAR-3 ovarian it was 27.5 µM; in the assay with MALME-3M melanoma it was 26.3 µM; in the assay with CCRF-CEM leukemia, 15.2 µM. The TGI with HT29 colon, with UACC-257 melanoma, in the assay with SW-620 colon, in the assay on TK-10 renal, in the assay on SNB-75 CNS and in the assay on A498 renal was above 100 µM each time. The concentration for total growth inhibition (TGI) – broadly, the concentration giving total growth inhibition – in the assay on SF-268 CNS was above 100 µM; in the assay with OVCAR-3 ovarian, above 100 µM; in the assay with MALME-3M melanoma it was 82.9 µM; with CCRF-CEM leukemia, above 100 µM.

Regarding `Cc1cc(Cl)cc2c1NC(=O)C2=O` (tested in a mixture with another compound), the concentration for total growth inhibition (TGI) with HT29 colon is above 100 µM; with UACC-257 melanoma, 51.1 µM; in the assay on SW-620 colon, above 100 µM; with TK-10 renal it was above 100 µM; in the assay with SNB-75 CNS it was above 100 µM; with A498 renal, above 100 µM. Besides, the TGI is above 100 µM in the assay with SF-268 CNS, above 100 µM with OVCAR-3 ovarian, above 100 µM in the assay on MALME-3M melanoma and 44.9 µM in the assay on CCRF-CEM leukemia.

As to `O=C(NCCCCCCCNC(=O)OCc1ccc2c(Cl)cc(Cl)c(O)c2n1)OCc1ccc2c(Cl)cc(Cl)c(O)c2n1`, the GI50 in the assay with HT29 colon is 0.538 µM; with UACC-257 melanoma, 1.21 µM; in the assay on SW-620 colon it was 0.273 µM; in the assay with TK-10 renal, 1.4 µM; in the assay on SNB-75 CNS, 0.905 µM; in the assay with A498 renal, 1.48 µM. Further, the GI50 is 1.28 µM with SF-268 CNS, 0.298 µM with OVCAR-3 ovarian, 1.2 µM with MALME-3M melanoma and 0.282 µM in the assay with CCRF-CEM leukemia. The total growth inhibition concentration (TGI) in the assay on HT29 colon was 2.46 µM; with UACC-257 melanoma, 2.6 µM; in the assay with SW-620 colon it was 0.744 µM; with TK-10 renal, 2.73 µM; in the assay with SNB-75 CNS it was 2.43 µM; in the assay on A498 renal it was 2.89 µM. Besides, the total growth inhibition concentration (TGI) was 2.78 µM with SF-268 CNS, 0.838 µM in the assay on OVCAR-3 ovarian, 2.53 µM in the assay on MALME-3M melanoma and 1.32 µM with CCRF-CEM leukemia.

For the compound `Nc1ccc2c(c1)c(N)nn2C(=O)Nc1ccc(Cc2ccccc2)cc1`, the GI50 with HT29 colon was 4.51 µM; in the assay with UACC-257 melanoma, 14.5 µM; in the assay with SW-620 colon, 4.48 µM; in the assay on TK-10 renal, 19.4 µM; in the assay with SNB-75 CNS, 17.4 µM; in the assay with A498 renal, 14.4 µM. Besides, the GI50 is 13 µM in the assay with SF-268 CNS, 12.1 µM in the assay with OVCAR-3 ovarian, 18 µM with MALME-3M melanoma and 2.07 µM in the assay on CCRF-CEM leukemia. Further, the TGI with HT29 colon turned out to be 17.2 µM; in the assay with UACC-257 melanoma, 29.7 µM; with SW-620 colon, 18.7 µM; in the assay on TK-10 renal, 46 µM; in the assay with SNB-75 CNS, 31.5 µM; in the assay with A498 renal, 28.4 µM. Further, the concentration for total growth inhibition (TGI) in the assay on SF-268 CNS was determined as 30.7 µM; in the assay on OVCAR-3 ovarian, 28.3 µM; in the assay with MALME-3M melanoma, 89.8 µM; with CCRF-CEM leukemia, 18.8 µM.

On to `COc1ccccc1NC(=O)C(CC(C(=O)Nc1ccccc1OC)/C(C)=N/Nc1ccc([N+](=O)[O-])cc1[N+](=O)[O-])/C(C)=N/Nc1ccc([N+](=O)[O-])cc1[N+](=O)[O-]` (centres undefined), for which the TGI in the assay on HT29 colon is above 100 µM; in the assay on UACC-257 melanoma, above 100 µM; with SW-620 colon it was above 100 µM; with TK-10 renal, 60 µM; with SNB-75 CNS, above 100 µM; in the assay on A498 renal it was above 100 µM. Further, the TGI in the assay with SF-268 CNS, with OVCAR-3 ovarian, with MALME-3M melanoma and in the assay on CCRF-CEM leukemia was above 100 µM each time.

As to `O=C(c1ccc(Cl)cc1)C1OC12C(=O)Nc1ccccc12` (centres undefined), the concentration for total growth inhibition (TGI) in the assay on HT29 colon worked out at 27.5 µM; in the assay with UACC-257 melanoma, 27.8 µM; in the assay with SW-620 colon, 17.4 µM; in the assay with TK-10 renal, 35.2 µM; in the assay on SNB-75 CNS, 32 µM; in the assay with A498 renal it was 36 µM. Further, the TGI was 40.2 µM in the assay with SF-268 CNS, above 55.7 µM in the assay with OVCAR-3 ovarian, 18.8 µM in the assay on MALME-3M melanoma and 4.71 µM with CCRF-CEM leukemia.

For `CCOc1cc(-c2ccc[nH]2)[nH]c1/C=C1\N=C(C)C(C(=O)OC)=C1C`, the 50% growth inhibitory concentration (GI50) in the assay on HT29 colon is below 0.0123 µM; in the assay on UACC-257 melanoma, 0.0551 µM; in the assay with SW-620 colon, 0.0321 µM; in the assay with TK-10 renal, 0.0579 µM; with SNB-75 CNS it was 0.0364 µM; in the assay with A498 renal, 0.47 µM. For the same compound, the concentration for 50% growth inhibition (GI50) is 0.0526 µM with SF-268 CNS, 0.0329 µM in the assay on OVCAR-3 ovarian and 0.216 µM with MALME-3M melanoma. In addition, the TGI came to 1.06 µM with HT29 colon; 0.939 µM with UACC-257 melanoma; 1.55 µM with SW-620 colon; 1.5 µM with TK-10 renal; 0.3 µM with SNB-75 CNS; 1.92 µM with A498 renal. The total growth inhibition concentration (TGI) was 1.81 µM in the assay with SF-268 CNS, 1.04 µM in the assay on OVCAR-3 ovarian, 4.3 µM with MALME-3M melanoma and 1.99 µM in the assay with CCRF-CEM leukemia.

On to `Cc1nc(N)nc2ccccc12`, for which the TGI with HT29 colon, with UACC-257 melanoma, in the assay with SW-620 colon, with TK-10 renal, in the assay with SNB-75 CNS and in the assay on A498 renal was above 100 µM throughout. The total growth inhibition concentration (TGI) with SF-268 CNS, in the assay with OVCAR-3 ovarian, in the assay on MALME-3M melanoma and in the assay with CCRF-CEM leukemia was above 100 µM in each case.

Turning to `COC(=O)/C(=N/NC(N)=O)C(C(=O)OC)C(=O)C(=O)Nc1ccc(Cl)cc1` (centres undefined), the concentration for total growth inhibition (TGI) in the assay on HT29 colon, in the assay with UACC-257 melanoma, with SW-620 colon, in the assay on TK-10 renal, in the assay on SNB-75 CNS and in the assay on A498 renal was above 100 µM each time. Besides, the total growth inhibition concentration (TGI) is above 100 µM with SF-268 CNS, above 100 µM in the assay with OVCAR-3 ovarian, above 100 µM in the assay on MALME-3M melanoma and above 75.5 µM with CCRF-CEM leukemia.

In the case of `COC(=O)CC(C(C(C)=O)C(=O)OCc1ccccc1)N1C(=O)OCC1c1ccccc1` (centres undefined), the TGI in the assay with HT29 colon is above 100 µM; with UACC-257 melanoma it was above 100 µM; in the assay with SW-620 colon, above 100 µM; with TK-10 renal, above 100 µM; in the assay with SNB-75 CNS it was 71.9 µM; in the assay on A498 renal it was above 100 µM. In addition, the TGI with SF-268 CNS, in the assay with OVCAR-3 ovarian, in the assay on MALME-3M melanoma and in the assay with CCRF-CEM leukemia was above 100 µM in each case.

In the case of `COc1nc(NC2OC(COC(C)=O)C(OC(C)=O)C(OC(C)=O)C2OC(C)=O)c(-c2csc(N)n2)c(=O)n1C` (centres undefined), the TGI in the assay on HT29 colon is above 100 µM; with UACC-257 melanoma it was above 100 µM; in the assay on SW-620 colon it was above 100 µM; with TK-10 renal it was above 100 µM; in the assay with SNB-75 CNS, 51.8 µM; in the assay on A498 renal, above 100 µM. Also, the TGI with SF-268 CNS was above 100 µM; with OVCAR-3 ovarian, above 100 µM; in the assay on MALME-3M melanoma, 78.8 µM; with CCRF-CEM leukemia it was above 100 µM.

In the case of `Cc1cc(Cl)ccc1NS(=O)(=O)c1ccc(-c2cnc(C3CC3)o2)cc1`, the GI50 with HT29 colon is 0.267 µM; in the assay with UACC-257 melanoma, 3.85 µM; in the assay on SW-620 colon, 0.198 µM; with TK-10 renal, 11.8 µM; in the assay with SNB-75 CNS it was 0.153 µM; in the assay on A498 renal, 0.0915 µM. Also, the GI50 is 2.98 µM in the assay on SF-268 CNS, 0.186 µM in the assay on OVCAR-3 ovarian, 0.567 µM in the assay on MALME-3M melanoma and 0.239 µM with CCRF-CEM leukemia. In addition, the total growth inhibition concentration (TGI) came to 11.8 µM with HT29 colon; 25.8 µM in the assay with UACC-257 melanoma; 16.1 µM in the assay on SW-620 colon; 31.1 µM with TK-10 renal; 0.667 µM in the assay with SNB-75 CNS; 0.841 µM in the assay on A498 renal. Further, the TGI in the assay with SF-268 CNS amounted to 23 µM; in the assay with OVCAR-3 ovarian it was 5.41 µM; with MALME-3M melanoma, 26.7 µM; in the assay with CCRF-CEM leukemia it was 38.3 µM.

Consider `CCCCCCCCCCCCCc1nn[nH]n1`, for which the concentration for total growth inhibition (TGI) with HT29 colon came to 33 µM; in the assay on UACC-257 melanoma, 35.9 µM; with SW-620 colon, 41.4 µM; with TK-10 renal it was 43.7 µM; with SNB-75 CNS, 36 µM; in the assay on A498 renal it was 32.2 µM. Further, the concentration for total growth inhibition (TGI) is 40.5 µM in the assay with SF-268 CNS, 32.6 µM with OVCAR-3 ovarian, 33.5 µM in the assay on MALME-3M melanoma and 41.7 µM in the assay with CCRF-CEM leukemia.

`CC1(C)OC2C(COS(N)(=O)=O)SC(n3cnc4cncnc43)C2O1` (centres undefined): the GI50 in the assay with HT29 colon, with UACC-257 melanoma, in the assay on SW-620 colon, in the assay on TK-10 renal, with SNB-75 CNS and in the assay with A498 renal was above 100 µM in each case. For the same compound, the GI50 in the assay with SF-268 CNS, in the assay with OVCAR-3 ovarian, with MALME-3M melanoma and in the assay with CCRF-CEM leukemia was above 100 µM each time. The TGI with HT29 colon, in the assay with UACC-257 melanoma, with SW-620 colon, in the assay with TK-10 renal, in the assay with SNB-75 CNS and in the assay on A498 renal was above 100 µM throughout. In addition, the TGI in the assay with SF-268 CNS, in the assay with OVCAR-3 ovarian, in the assay on MALME-3M melanoma and in the assay with CCRF-CEM leukemia was above 100 µM in each case.

Source of the values: PubChem BioAssay (NCI).
